# Patent US8497299B2, “Compositions including quinonoid derivatives of cannabinoids for therapeutic use” (Yissum Research Development Company of The Hebrew …, priority 2004, dated 2013)
# “And” between values parts separate entries of the source, which are not always exact repeats. Equal values may be shown once.
# Columns and labels:
# [1] = test system: Jurkat (human T-cell lymphoma); experiment: MTT cell proliferation test, Jurkat cells; assay type: cell-based
# Description: (§1) Aliquots (200 μL) of suspensions of cancer cells were dispensed into wells of 96-well tissue culture plates at densities of 0.02×10^6 cells/well. Various concentrations of cannabinoic quinones were introduced into the wells, and their efficacy was tested three days after initiation of the cultures, using the 3-(4,5-dimethylthiazol-2-yl)-2,5-diphenyltetrazolium bromide (MTT) assay. The principle of this assay is that cells which survive following exposure to various compounds can reduce MTT to a dark-colored formazan, while dead cells are incapable of doing so. […] In each MTT assay every concentration of the cytotoxic substance was tested in five replicates in microplate wells. Assays with every cell line were carried out in two to three repeated experiments. The inhibitory effect of various compounds was calculated as percentage inhibition in comparison with the values obtained in untreated wells to which vehicle (ethanol 0.5%) was added.
# HT-29 colon cancer = experiment: Growth of HT-29 colon cancer grafted s.c. in nude mice; assay type: in vivo
# Description: Tumors were grafted into nude mice by s.c. flank inoculation of 0.2×10^6 HT-29 cells in RPMI 1640 medium without FCS. The animals were assigned randomly to various groups and injected via intraperitoneal (i.p.), intratumor or subcutaneous (s.c.) on day 2 or 14 after cells injection with vehicle (1:1:18 v/v ethanol:Emulphor®:PBS) or 5 mg/kg of HU-331. Tumors were measured with external caliper, and their area was calculated by multiplying the length by the width of the tumor.
# (§2) A series of experiments were carried out to determine the capacity of HU-331 to inhibit the growth of human tumor cells in vivo. Nude mice received a subcutaneous (s.c.) injection of HT-29 human colon cancer cells. At various time intervals after the administration of the tumor cells the mice received i.p. or s.c. injections of HU-331 (2) at a dose of 5 mg/kg 3 times per week. This concentration paralleled the concentration of 5 μg/ml used in the in vitro experiments, which killed about 50% of HT-29 cancer cells.
# Further, ten nude mice received a s.c. injection of HT-29 and were divided in two groups. Starting from day 2 after tumor injection, one group of mice received the i.p. injections of HU-331.
# In another in vivo experiment, two groups of nude mice received an injection of HT-29 cancer cells subcutaneously in their backs. HU-331 (2) was injected subcutaneously at a concentration of 5 μg/ml (FIG. 6). In one group (Group 1), HU-331 was administrated intra-tumorally starting 14 days after the injection of tumor cells. In another group (Group 2), HU-331 was injected subcutaneously in the region where cancer cells had been injected, starting 2 days after the injection of tumor cells. […] In the mice that received HU-331 intra-tumorally starting 14 days after tumor implantation (Group 1), the anti-tumor effect of HU-331 took a longer time to be manifested.
# [2] = Tolerability in treated nude mice (weight loss, adverse effects); assay type: in vivo; conditions: 5 mg/kg
# Description: as §2
# [3] = test system: Raji (Burkitt's lymphoma); experiment: MTT cell proliferation test, Raji cells; assay type: cell-based, human
# Description: as §1
# MCF-7 (breast cancer) = experiment: MTT cell proliferation test, MCF-7 cells; assay type: cell-based, human
# Description: (§3) Raji and Jurkat cells were suspended in RPMI 1640 medium, supplemented with 20% heat-inactivated fetal calf serum (H-I FCS), 2 mM L-glutamine, 100 U/mL penicillin, and 0.01 mg/mL streptomycin at 37° C. in a 5% CO2 humidified atmosphere. Other cell lines were suspended in RPMI 1640 medium, supplemented with 10% H-I FCS, 2 mM L-glutamine, 100 U/mL penicillin, and 0.01 mg/mL streptomycin at 37° C. in a 5% CO2 humidified atmosphere.
# (§4) Aliquots (200 μL) of suspensions of cancer cells were dispensed into wells of 96-well tissue culture plates at densities of 0.02×10^6 cells/well. Various concentrations of cannabinoic quinones were introduced into the wells, and their efficacy was tested three days after initiation of the cultures, using the 3-(4,5-dimethylthiazol-2-yl)-2,5-diphenyltetrazolium bromide (MTT) assay. The principle of this assay is that cells which survive following exposure to various compounds can reduce MTT to a dark-colored formazan, while dead cells are incapable of doing so. The assay was performed as described previously [Carmichael, J., et al. (1987) Cancer Res. 47, 936-42; Rubinstein, L. V. et al. (1990) J Natl Cancer Inst. 82, 1113-8; Rubnov, S. et al. (2001) J Nat Prod. 64, 993-6]. In each MTT assay every concentration of the cytotoxic substance was tested in five replicates in microplate wells. Assays with every cell line were carried out in two to three repeated experiments. The inhibitory effect of various compounds was calculated as percentage inhibition in comparison with the values obtained in untreated wells to which vehicle (ethanol 0.5%) was added.
# (§5) The ability of cannabinoic quinones to inhibit cancer growth in vitro was verified on the following human cancer cell lines: Raji (Burkitt's lymphoma), Jurkat (human T-cell lymphoma), SNB-19 (glioblastoma), MCF-7 (breast cancer), DU-145 (prostate cancer), NCI-H-226 (lung cancer), and HT-29 (colon cancer) (see FIG. 5A-5E).
# [4] = test system: human cancer cell lines (Raji, Jurkat, SNB-19, MCF-7, DU-145, NCI-H-226, HT-29); experiment: MTT cell proliferation test, all cell lines tested; assay type: cell-based; conditions: for growth inhibition of human cancer cell lines in vitro, in words: MTT; for concentration at which all cell lines tested were inhibited: all cell lines / cell types tested
# Description: as §1
# HT-29 (colon cancer) = experiment: MTT cell proliferation test, HT-29 cells; assay type: cell-based, human
# Description: as §3, §4, §5
# SNB-19 (glioblastoma) = experiment: MTT cell proliferation test, SNB-19 cells; assay type: cell-based, human; conditions: for susceptibility of the cell line to inhibition, in words: SNB-19, relative to the other cell lines
# Description: as §1
# DU-145 (prostate cancer) = experiment: MTT cell proliferation test, DU-145 cells; assay type: cell-based, human; conditions: for susceptibility of the cell line to inhibition, in words: DU-145, relative to the other cell lines
# Description: as §1
smiles,measurement,setting,value
"C=C(C)[C@@H]1CCC(C)=C[C@H]1C1=C(O)C(=O)C(CCCCC)=CC1=O [HU-331, 3S,4R-p-benzoquinone-3-hydroxy-2-p-mentha-(1,8)-dien-3-yl-5-pentyl]",concentration giving 50% inhibition of growth,"[1]; Jurkat lymphoma, MTT, three days",0.2 µg/mL
same,inhibition of Jurkat cell growth,[1]; at 0.2 μg/ml,about 50%
same,inhibition of Jurkat cell growth,[1]; at 1.56 μg/ml,over 80%
same,tumor size versus controls,"HT-29 colon cancer; i.p. 5 mg/kg 3 times per week from day 2, at 35 days after cancer cell injection, p<0.0029",half the size of the tumors in controls
same,tumor size versus vehicle-treated control mice,"HT-29 colon cancer; i.p. 5 mg/kg 3 times per week from day 2, starting at 25 days after cancer cells injection, p<0.05",significantly smaller
same,tumor size versus controls,"HT-29 colon cancer; intra-tumoral from day 14 (Group 1), from day 31 onwards, not significant until day 45",smaller than in controls
same,tumor size versus control mice,"HT-29 colon cancer; intra-tumoral from day 14 (Group 1), starting at day 45 after cell injection, p<0.05",significantly smaller
same,tumor size versus control mice,"HT-29 colon cancer; s.c. in the region of the graft from day 2 (Group 2), at days 17-25 and until day 59, p<0.05",significantly smaller
same,weight loss and observable adverse effects,[2],did not cause either weight loss or any observable adverse effects
same,concentration giving 50% inhibition of growth,"[3]; Raji lymphoma, MTT, three days",0.2 µg/mL
same,inhibition of Raji cell growth,[3]; at 0.2 μg/ml,about 50%
same,inhibition of Raji cell growth,[3]; at 1.56 μg/ml,over 80%
same,"susceptibility of the cell line to inhibition, in words","MCF-7 (breast cancer); MCF-7, relative to the other cell lines",most susceptible
same,concentration required for 50% inhibition of growth,"MCF-7 (breast cancer); MCF-7 mammary cancer, MTT, three days",3.125 µg/mL
same,inhibition of MCF-7 cell growth,MCF-7 (breast cancer); at 3.125 μg/ml,about 50%
same,"growth inhibition of human cancer cell lines in vitro, in words",[4],exerted an inhibitory effect on the in vitro growth of all seven human cancer cell lines tested
same,"susceptibility of the cell line to inhibition, in words","HT-29 (colon cancer); HT-29, relative to the other cell lines",most susceptible
same,concentration required for 50% inhibition of growth,"HT-29 (colon cancer); HT-29 colon cancer, MTT, three days",3.125 µg/mL
same,inhibition of HT-29 cell growth,HT-29 (colon cancer); at 3.125 μg/ml,about 50%
same,HT-29 cancer cells killed,HT-29 (colon cancer); at 5 μg/ml in vitro,about 50%
"CCCCCC1=CC(=O)C2=C(OC(C)(C)[C@@H]3CC=C(C)C[C@@H]23)C1=O [HU-336, 6aR,10aR-1-H-dibenzo[b,d]pyran-1,4-(6H)-dione-6aβ,7,10,10aα-tetrahydro-6,6,9-trimethyl-3-pentyl]","susceptibility of the cell line to inhibition, in words",SNB-19 (glioblastoma),most susceptible
same,concentration at which growth was inhibited,"SNB-19 (glioblastoma); SNB-19 cells, inhibited only at this concentration",100 µg/mL
same,"growth inhibition of human cancer cell lines in vitro, in words",[4],weakest capacity to inhibit the growth of human cancer cell lines in vitro
same,concentration at which all cell lines tested were inhibited,[4],over 12.5 μg/ml
same,inhibition of growth of all the cells tested,[4]; at 12.5 μg/ml or higher,≥ 50%
same,"susceptibility of the cell line to inhibition, in words",DU-145 (prostate cancer),most susceptible
"CCCCCC1=CC(=O)C2=C(OC(C)(C)c3ccc(C)cc32)C1=O [HU-345, 1-H-dibenzo[b,d]pyran-1,4(6H)-dione-6,6,9-trimethyl-3-pentyl]",concentration at which growth was inhibited,[1]; Jurkat cells,12.5 µg/mL and 12.5 to 25.0 µg/mL
same,inhibition at 6.25 µg/mL,"[3]; Homo sapiens, Raji, read-out: inhibition of Raji cell growth",> 50%
same,"inhibition of Raji cell growth, comparison in words",[3]; MTT,more effectively than that of the other cell lines tested
same,"susceptibility of the cell line to inhibition, in words",SNB-19 (glioblastoma),most susceptible
same,concentration at which all cell lines tested were inhibited,[4],25.0 µg/mL and 12.5 to 25.0 µg/mL
same,"susceptibility of the cell line to inhibition, in words",DU-145 (prostate cancer),most susceptible
same,concentration at which growth was inhibited,DU-145 (prostate cancer); DU-145 prostate cancer cells,12.5 µg/mL
"CCCCCC1=CC(=O)C([C@@H]2C=C(C)CC[C@H]2C(C)C)=C(O)C1=O [HU-395, 3S,4R-p-benzoquinone-3-hydroxy-2-[p-mentha-1-en-3-yl]-5-pentyl]",inhibition at 0.2 µg/mL,"[1]; Homo sapiens, Jurkat, at 0.2 μg/ml, read-out: inhibition of Jurkat cell growth",~60%
same,"inhibition of Jurkat cell proliferation, comparison in words",[1]; MTT,at least to the same extent as HU-331
"CCCCCC1=CC(=O)C([C@@H]2CC(C)CC[C@H]2C(C)C)=C(O)C1=O (stereo partly drawn) [HU-396, 3S,4R-p-benzoquinone-3-hydroxy-2-[p-menthan-3-yl]-5-pentyl]","inhibition of Jurkat cell proliferation, comparison in words",[1]; MTT,less effectively than HU-395 and HU-331
same,Jurkat cancer cells killed,[1]; at 0.39 μg/ml,about 40%
same,Jurkat cancer cells killed,[1]; at 0.78 μg/ml,about 60%
